Test results as given in patent US20230233690A1, “ANDROGEN RECEPTOR PROTEIN DEGRADERS” (THE REGENTS OF THE UNIVERSITY OF MICHIGAN, priority 2020, published 2023).

How the values were obtained:
AR protein [1] = target: T1, AR protein (Homo sapiens, UniProt P10275, T878A); assay: Western blotting of AR protein degradation in LNCaP cells; type: cell-based; conditions: 24 hr treatment
T1 construct: endogenous in cells; host or cells: LNCaP
T1 sequence (P10275 1-920 T878A): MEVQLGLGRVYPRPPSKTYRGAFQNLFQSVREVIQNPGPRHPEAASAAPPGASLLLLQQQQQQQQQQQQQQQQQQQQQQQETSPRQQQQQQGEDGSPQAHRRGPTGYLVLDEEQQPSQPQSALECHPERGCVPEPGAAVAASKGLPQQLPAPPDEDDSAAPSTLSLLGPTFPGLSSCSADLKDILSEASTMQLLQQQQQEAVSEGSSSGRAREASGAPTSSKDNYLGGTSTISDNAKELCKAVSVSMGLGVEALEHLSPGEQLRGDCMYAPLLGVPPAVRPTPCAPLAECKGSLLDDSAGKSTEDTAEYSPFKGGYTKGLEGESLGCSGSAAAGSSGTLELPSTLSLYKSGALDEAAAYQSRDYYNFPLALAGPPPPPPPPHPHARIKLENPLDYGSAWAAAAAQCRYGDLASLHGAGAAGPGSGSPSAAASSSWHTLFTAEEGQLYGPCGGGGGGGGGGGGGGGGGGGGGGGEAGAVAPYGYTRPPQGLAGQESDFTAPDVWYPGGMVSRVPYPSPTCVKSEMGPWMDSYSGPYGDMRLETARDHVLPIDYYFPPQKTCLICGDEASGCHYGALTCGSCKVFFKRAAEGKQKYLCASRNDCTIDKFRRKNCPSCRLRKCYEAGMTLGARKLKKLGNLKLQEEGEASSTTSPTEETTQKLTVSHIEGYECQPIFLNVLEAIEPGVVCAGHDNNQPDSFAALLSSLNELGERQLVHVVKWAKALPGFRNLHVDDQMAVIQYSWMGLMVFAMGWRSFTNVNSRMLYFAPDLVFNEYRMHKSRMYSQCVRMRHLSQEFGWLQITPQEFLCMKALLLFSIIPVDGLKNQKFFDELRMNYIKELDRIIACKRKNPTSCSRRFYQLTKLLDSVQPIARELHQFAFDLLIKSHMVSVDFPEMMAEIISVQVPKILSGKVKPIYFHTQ
Procedure: (§1) The appropriate cell line, e.g., prostate cancer LNCaP, Vcap, or MDA-MB-453 cell line, was treated with Compounds of the Disclosure. The treated cells were lysed with RIPA buffer. The AR level in the cell lysates was examined by western blotting and a specific AR antibody (ab194196, Abcam, Cambridge, Mass. 02139) with concentration of 1:20,000. GAPDH was used as a loading control.
(§2) Bands were quantified with ImageJ software. The relative numbers of each band obtained from normalization with its corresponding GAPDH level were compared with Prism 8 software. The DC50 values were produced from Prism 8, and the DC90 values were calculated with an equation=Bottom+(Top−Bottom)/(1+10^((Log EC50−X)*HillSlope) based on DC50 and Hillslope values.
(§3) The amount of AR protein degradation in LNCaP, VCap, and MDA-MB-453 cells caused representative Compounds of the Disclosure at the concentrations indicated is presented in Table 4 and Table 5.

AR protein [2] = assay: Western blotting of AR protein degradation in MDA-MB-453 cells; type: cell-based; parameters: key: A: >90% degradation (24 hr treatment); B: >50% degradation but <90% (24 hr treatment); C: >10% degradation but <50% (24 hr treatment); D: No significant degradation (24 hr treatment); conditions: 24 hr treatment
Procedure: as §1, §2, §3

With CC1(C)[C@H](NC(=O)c2ccc(N3CCN(CCCCCOc4cccc5c4CN(C4CCC(=O)NC4=O)C5=O)CC3)nc2)C(C)(C)[C@H]1Oc1ccc(C#N)c(Cl)c1 (stereo partly drawn) [compound 50] the “AR protein degradation LNCAP 10 nM” value (AR protein [1]; 10 nM) was “A (>90% degradation (24 hr treatment))” and the “AR protein degradation LNCAP 100 nM” value (AR protein [1]; 100 nM) was “A (>90% degradation (24 hr treatment))”.

N#Cc1ccc(O[C@H]2CC[C@H](Oc3ccc(C4CCN(CC5CCN(c6cccc7c6C(=O)N(C6CCC(=O)NC6=O)C7=O)CC5)CC4)cc3)CC2)cc1Cl (stereo partly drawn) [compound 53] was tested, and the “AR protein degradation MDA-MB-453 10 nM” value (AR protein [2]; 10 nM) was “D” and the “AR protein degradation MDA-MB-453 100 nM” value (AR protein [2]) was “C (>10% degradation but <50% (24 hr treatment))”.

N#Cc1ccc(O[C@@H]2CCC[C@@H](Oc3ccc(C4CCN(CC5CCN(c6cccc7c6C(=O)N(C6CCC(=O)NC6=O)C7=O)CC5)CC4)cc3)C2)cc1Cl (stereo partly drawn) [compound 54] was tested, and the “AR protein degradation MDA-MB-453 100 nM” value (AR protein [2]) was “C (>10% degradation but <50% (24 hr treatment))”.

For N#Cc1ccc(O[C@@H]2CCC[C@@H](Oc3ccc(N4CCN(CC5CCN(c6ccc7c(c6)C(=O)N(C6CCC(=O)NC6=O)C7=O)CC5)CC4)cc3)C2)cc1Cl (stereo partly drawn) [compound 55], the “AR protein degradation MDA-MB-453 100 nM” value (AR protein [2]) was “C (>10% degradation but <50% (24 hr treatment))”.
